Experimental data taken from ChEMBL document CHEMBL3779870, “Differential metabolism of 3FDT and docetaxel in RLMs, rats, and HLMs” (Eur J Med Chem, 2016).

What was measured:
Plasma [1] = assay: Drug metabolism in Sprague-Dawley rat plasma assessed as metabolite M4 formation at 40 mg/kg, iv administered as single dose after 4 to 24 hrs by HPLC-TIC chromatography; assay type: ADME, organism-based; details: in vivo
Plasma [2] = assay: Drug metabolism in Sprague-Dawley rat plasma assessed as 7-epi-3FDT formation at 40 mg/kg, iv administered as single dose after 4 to 24 hrs by HPLC-TIC chromatography; assay type: ADME, organism-based; details: in vivo
[3] = Drug metabolism in Sprague-Dawley rat urine assessed as metabolite M4 formation at 40 mg/kg, iv administered as single dose after 24 hrs by HPLC-TIC chromatography; assay type: ADME, organism-based; details: in vivo
[4] = Drug metabolism in Sprague-Dawley rat urine assessed as 7-epi-3FDT formation at 40 mg/kg, iv administered as single dose after 24 hrs by HPLC-TIC chromatography; assay type: ADME, organism-based; details: in vivo
[5] = Drug metabolism in Sprague-Dawley rat feces assessed as metabolite M4 formation at 40 mg/kg, iv administered as single dose after 24 hrs by HPLC-TIC chromatography; assay type: ADME, organism-based; details: in vivo
[6] = Drug metabolism in Sprague-Dawley rat feces assessed as 7-epi-3FDT formation at 40 mg/kg, iv administered as single dose after 24 hrs by HPLC-TIC chromatography; assay type: ADME, organism-based; details: in vivo
Cytochrome P450 3A4 [7] = biological target: T1, Cytochrome P450 3A4 (Homo sapiens, UniProt P08684); assay: Drug metabolism assessed as recombinant human CYP3A4 mediated metabolite M1 formation at 10 uM preincubated for 5 mins followed by addition of NADPH measured after 120 mins by HPLC-TIC chromatography; assay type: ADME; details: recombinant enzyme, 2 h
T1 sequence (P08684 whole entry): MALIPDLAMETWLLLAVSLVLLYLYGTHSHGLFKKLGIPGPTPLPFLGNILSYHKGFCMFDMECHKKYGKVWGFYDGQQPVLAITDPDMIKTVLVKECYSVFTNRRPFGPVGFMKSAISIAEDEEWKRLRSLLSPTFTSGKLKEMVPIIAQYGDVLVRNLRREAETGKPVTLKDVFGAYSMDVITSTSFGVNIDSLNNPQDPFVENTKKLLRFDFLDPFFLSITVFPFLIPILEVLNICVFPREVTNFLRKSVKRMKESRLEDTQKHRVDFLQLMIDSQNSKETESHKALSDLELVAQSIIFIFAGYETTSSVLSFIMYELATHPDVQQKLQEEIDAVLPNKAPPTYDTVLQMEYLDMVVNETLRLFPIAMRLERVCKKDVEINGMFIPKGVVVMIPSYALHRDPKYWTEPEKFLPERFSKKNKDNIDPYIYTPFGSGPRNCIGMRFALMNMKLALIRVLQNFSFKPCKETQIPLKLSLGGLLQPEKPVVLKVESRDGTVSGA

Cytochrome P450 3A4 [8] = biological target: T1, Cytochrome P450 3A4; assay: Drug metabolism assessed as recombinant human CYP3A4 mediated metabolite M2 formation at 10 uM preincubated for 5 mins followed by addition of NADPH measured after 120 mins by HPLC-TIC chromatography; assay type: ADME; details: recombinant enzyme, 2 h
Cytochrome P450 3A4 [9] = biological target: T1, Cytochrome P450 3A4; assay: Drug metabolism assessed as recombinant human CYP3A4 mediated metabolite M3 formation at 10 uM preincubated for 5 mins followed by addition of NADPH measured after 120 mins by HPLC-TIC chromatography; assay type: ADME; details: recombinant enzyme, 2 h
Cytochrome P450 3A5 [10] = biological target: T2, Cytochrome P450 3A5 (Homo sapiens, UniProt P20815); assay: Drug metabolism assessed as recombinant human CYP3A5 mediated metabolite M1 formation at 10 uM preincubated for 5 mins followed by addition of NADPH measured after 120 mins by HPLC-TIC chromatography; assay type: ADME; details: recombinant enzyme, 2 h
T2 sequence (P20815 whole entry): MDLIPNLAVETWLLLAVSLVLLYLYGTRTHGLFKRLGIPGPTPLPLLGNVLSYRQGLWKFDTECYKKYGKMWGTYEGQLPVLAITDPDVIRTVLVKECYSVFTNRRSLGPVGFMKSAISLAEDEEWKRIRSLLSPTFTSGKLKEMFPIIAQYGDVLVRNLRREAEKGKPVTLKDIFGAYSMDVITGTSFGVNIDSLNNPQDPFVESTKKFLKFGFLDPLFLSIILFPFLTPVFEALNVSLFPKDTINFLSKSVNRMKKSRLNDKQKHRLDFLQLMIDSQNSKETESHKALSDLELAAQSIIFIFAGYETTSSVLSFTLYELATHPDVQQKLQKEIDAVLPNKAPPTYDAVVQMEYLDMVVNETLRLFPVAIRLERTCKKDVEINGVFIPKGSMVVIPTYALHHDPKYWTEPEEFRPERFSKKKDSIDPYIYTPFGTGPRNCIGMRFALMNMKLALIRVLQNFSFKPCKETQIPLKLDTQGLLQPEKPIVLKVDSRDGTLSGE

Cytochrome P450 3A5 [11] = biological target: T2, Cytochrome P450 3A5; assay: Drug metabolism assessed as recombinant human CYP3A5 mediated metabolite M2 formation at 10 uM preincubated for 5 mins followed by addition of NADPH measured after 120 mins by HPLC-TIC chromatography; assay type: ADME; details: recombinant enzyme, 2 h
Cytochrome P450 2E1 = Cytochrome P450 2E1 (Homo sapiens, UniProt P05181); assay: Drug metabolism assessed as recombinant human CYP2E1 mediated metabolite M4 formation at 10 uM preincubated for 5 mins followed by addition of NADPH measured after 120 mins by HPLC-TIC chromatography; assay type: ADME; details: recombinant enzyme, 2 h
Chain of Cytochrome P450 2E1 (P05181 whole entry): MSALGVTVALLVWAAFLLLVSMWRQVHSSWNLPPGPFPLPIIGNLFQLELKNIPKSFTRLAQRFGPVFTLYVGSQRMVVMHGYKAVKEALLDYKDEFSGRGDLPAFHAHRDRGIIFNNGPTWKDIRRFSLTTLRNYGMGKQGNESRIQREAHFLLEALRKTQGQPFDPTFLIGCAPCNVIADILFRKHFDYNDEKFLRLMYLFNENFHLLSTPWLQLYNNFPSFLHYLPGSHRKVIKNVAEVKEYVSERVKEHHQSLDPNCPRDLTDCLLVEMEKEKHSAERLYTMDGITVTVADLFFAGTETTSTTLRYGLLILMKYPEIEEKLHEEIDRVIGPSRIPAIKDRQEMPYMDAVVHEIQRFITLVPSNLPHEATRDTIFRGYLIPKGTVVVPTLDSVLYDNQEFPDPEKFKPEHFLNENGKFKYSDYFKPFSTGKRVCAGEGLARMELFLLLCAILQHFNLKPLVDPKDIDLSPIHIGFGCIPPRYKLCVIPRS

Cytochrome P450 1A2 = biological target: T3, Cytochrome P450 1A2 (Homo sapiens, UniProt P05177); assay: Drug metabolism assessed as recombinant human CYP1A2 mediated metabolite formation at 10 uM preincubated for 5 mins followed by addition of NADPH measured after 120 mins by HPLC-TIC chromatography; assay type: ADME; details: recombinant enzyme, 2 h
T3 sequence (P05177 whole entry): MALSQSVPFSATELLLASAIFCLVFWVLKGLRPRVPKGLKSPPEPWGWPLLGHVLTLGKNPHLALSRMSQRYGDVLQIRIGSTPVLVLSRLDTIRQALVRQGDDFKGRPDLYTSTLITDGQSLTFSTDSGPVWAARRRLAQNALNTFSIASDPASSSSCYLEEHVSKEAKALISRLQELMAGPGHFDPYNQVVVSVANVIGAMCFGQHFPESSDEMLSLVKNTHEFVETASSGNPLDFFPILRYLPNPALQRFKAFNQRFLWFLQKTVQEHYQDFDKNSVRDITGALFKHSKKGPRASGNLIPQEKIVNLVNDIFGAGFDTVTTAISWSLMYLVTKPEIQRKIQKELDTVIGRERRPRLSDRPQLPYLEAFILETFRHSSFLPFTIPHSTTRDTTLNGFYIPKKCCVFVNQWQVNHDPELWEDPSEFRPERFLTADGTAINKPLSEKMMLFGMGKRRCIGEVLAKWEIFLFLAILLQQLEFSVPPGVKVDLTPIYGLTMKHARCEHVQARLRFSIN

Cytochrome P450 2B6 = biological target: T4, Cytochrome P450 2B6 (Homo sapiens, UniProt P20813); assay: Drug metabolism assessed as recombinant human CYP2B6 mediated metabolite formation at 10 uM preincubated for 5 mins followed by addition of NADPH measured after 120 mins by HPLC-TIC chromatography; assay type: ADME; details: recombinant enzyme, 2 h
T4 sequence (P20813 whole entry): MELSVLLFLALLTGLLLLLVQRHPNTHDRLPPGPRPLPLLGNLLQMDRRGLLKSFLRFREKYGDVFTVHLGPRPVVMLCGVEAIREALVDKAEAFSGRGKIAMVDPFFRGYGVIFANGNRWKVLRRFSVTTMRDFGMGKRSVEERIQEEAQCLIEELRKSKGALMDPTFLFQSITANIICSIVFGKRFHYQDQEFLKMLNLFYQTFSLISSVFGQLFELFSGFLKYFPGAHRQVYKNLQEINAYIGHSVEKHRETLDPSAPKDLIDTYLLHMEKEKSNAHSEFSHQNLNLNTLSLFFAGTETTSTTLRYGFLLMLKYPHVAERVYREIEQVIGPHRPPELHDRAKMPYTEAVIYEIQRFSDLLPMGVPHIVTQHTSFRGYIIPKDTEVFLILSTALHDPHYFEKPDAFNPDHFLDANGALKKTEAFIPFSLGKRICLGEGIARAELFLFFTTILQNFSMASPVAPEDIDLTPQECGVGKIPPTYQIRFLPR

Cytochrome P450 2C8 = biological target: T5, Cytochrome P450 2C8 (Homo sapiens, UniProt P10632); assay: Drug metabolism assessed as recombinant human CYP2C8 mediated metabolite formation at 10 uM preincubated for 5 mins followed by addition of NADPH measured after 120 mins by HPLC-TIC chromatography; assay type: ADME; details: recombinant enzyme, 2 h
T5 sequence (P10632 whole entry): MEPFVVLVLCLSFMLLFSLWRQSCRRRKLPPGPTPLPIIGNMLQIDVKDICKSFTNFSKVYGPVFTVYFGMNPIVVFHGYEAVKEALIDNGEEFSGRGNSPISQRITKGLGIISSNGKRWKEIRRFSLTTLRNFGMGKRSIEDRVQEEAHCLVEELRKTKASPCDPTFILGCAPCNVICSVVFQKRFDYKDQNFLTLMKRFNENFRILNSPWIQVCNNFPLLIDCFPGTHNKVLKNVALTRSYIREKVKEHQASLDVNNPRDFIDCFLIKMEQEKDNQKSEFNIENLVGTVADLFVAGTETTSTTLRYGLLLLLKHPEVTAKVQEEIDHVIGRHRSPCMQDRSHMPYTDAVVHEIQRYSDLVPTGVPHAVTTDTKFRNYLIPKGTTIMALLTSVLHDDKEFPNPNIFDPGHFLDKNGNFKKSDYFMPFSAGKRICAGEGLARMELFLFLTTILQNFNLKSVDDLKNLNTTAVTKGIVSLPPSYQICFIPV

Cytochrome P450 2C9 = Cytochrome P450 2C9 (Homo sapiens, UniProt P11712); assay: Drug metabolism assessed as recombinant human CYP2C9 mediated metabolite formation at 10 uM preincubated for 5 mins followed by addition of NADPH measured after 120 mins by HPLC-TIC chromatography; assay type: ADME; details: recombinant enzyme, 2 h
Chain of Cytochrome P450 2C9 (P11712 whole entry): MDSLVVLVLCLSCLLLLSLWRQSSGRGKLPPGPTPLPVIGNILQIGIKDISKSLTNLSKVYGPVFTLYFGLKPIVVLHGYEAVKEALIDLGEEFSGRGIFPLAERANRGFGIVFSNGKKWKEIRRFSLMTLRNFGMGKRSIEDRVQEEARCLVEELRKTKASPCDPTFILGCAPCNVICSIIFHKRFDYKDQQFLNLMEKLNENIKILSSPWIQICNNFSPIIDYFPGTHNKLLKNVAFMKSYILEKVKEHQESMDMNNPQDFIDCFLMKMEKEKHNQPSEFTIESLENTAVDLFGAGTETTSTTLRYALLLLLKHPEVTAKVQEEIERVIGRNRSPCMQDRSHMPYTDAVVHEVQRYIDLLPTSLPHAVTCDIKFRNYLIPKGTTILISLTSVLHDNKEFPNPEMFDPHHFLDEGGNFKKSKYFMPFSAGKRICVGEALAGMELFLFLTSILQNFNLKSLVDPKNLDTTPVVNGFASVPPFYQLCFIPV

Cytochrome P450 2C19 = Cytochrome P450 2C19 (Homo sapiens, UniProt P33261); assay: Drug metabolism assessed as recombinant human CYP2C19 mediated metabolite formation at 10 uM preincubated for 5 mins followed by addition of NADPH measured after 120 mins by HPLC-TIC chromatography; assay type: ADME; details: recombinant enzyme, 2 h
Chain of Cytochrome P450 2C19 (P33261 whole entry): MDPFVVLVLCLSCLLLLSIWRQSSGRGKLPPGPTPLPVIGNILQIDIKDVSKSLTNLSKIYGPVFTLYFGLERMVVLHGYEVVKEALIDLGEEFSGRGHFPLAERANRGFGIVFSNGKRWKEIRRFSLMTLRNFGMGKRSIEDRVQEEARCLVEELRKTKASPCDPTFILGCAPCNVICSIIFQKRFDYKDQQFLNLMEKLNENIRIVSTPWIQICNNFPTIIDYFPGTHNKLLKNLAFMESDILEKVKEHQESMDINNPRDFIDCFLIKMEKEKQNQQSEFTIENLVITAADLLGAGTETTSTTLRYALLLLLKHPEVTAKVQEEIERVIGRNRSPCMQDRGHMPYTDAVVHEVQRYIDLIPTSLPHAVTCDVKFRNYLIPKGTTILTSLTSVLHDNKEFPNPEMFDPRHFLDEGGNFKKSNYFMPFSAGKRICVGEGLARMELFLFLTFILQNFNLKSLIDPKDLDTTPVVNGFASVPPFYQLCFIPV

Cytochrome P450 2D6 = Cytochrome P450 2D6 (Homo sapiens, UniProt P10635); assay: Drug metabolism assessed as recombinant human CYP2D6 mediated metabolite formation at 10 uM preincubated for 5 mins followed by addition of NADPH measured after 120 mins by HPLC-TIC chromatography; assay type: ADME; details: recombinant enzyme, 2 h
Chain of Cytochrome P450 2D6 (P10635 whole entry): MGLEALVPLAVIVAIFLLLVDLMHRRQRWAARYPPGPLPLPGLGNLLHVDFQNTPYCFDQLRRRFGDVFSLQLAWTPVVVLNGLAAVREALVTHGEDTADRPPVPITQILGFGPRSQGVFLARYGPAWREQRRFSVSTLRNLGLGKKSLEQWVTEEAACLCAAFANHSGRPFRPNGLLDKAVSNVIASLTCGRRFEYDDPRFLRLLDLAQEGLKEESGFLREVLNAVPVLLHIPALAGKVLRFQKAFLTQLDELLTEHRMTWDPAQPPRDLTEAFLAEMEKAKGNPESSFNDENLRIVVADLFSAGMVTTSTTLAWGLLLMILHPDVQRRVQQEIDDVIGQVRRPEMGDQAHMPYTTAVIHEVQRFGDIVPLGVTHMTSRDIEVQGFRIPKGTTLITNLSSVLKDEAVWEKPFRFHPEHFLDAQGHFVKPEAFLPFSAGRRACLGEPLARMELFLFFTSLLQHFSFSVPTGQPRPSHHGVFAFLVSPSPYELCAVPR

In the case of CC(=O)O[C@@]12CO[C@@H]1C[C@H](O)[C@@]1(C)C(=O)[C@H](O)C3=C(C)[C@@H](OC(=O)[C@H](O)[C@@H](NC(=O)OC(C)(C)C(F)(F)F)c4ccccc4)C[C@@](O)([C@@H](OC(=O)c4ccccc4)C12)C3(C)C (stereo partly drawn), the Drug metabolism (Plasma [1]) is reported as “metabolite_detected”, the Drug metabolism (Plasma [2]) is reported as “metabolite_detected” and the Drug metabolism [3] is reported as “metabolite_detected”. The Drug metabolism [4] was “metabolite_detected”, the Drug metabolism [5] was “metabolite_detected” and the Drug metabolism [6] was “metabolite_detected”. The Drug metabolism (Cytochrome P450 3A4 [7]) was “metabolite_detected”, the Drug metabolism (Cytochrome P450 3A4 [8]) was “metabolite_detected” and the Drug metabolism (Cytochrome P450 3A4 [9]) was “metabolite_detected”. The Drug metabolism (Cytochrome P450 3A5 [10]) was “metabolite_detected”, the Drug metabolism (Cytochrome P450 3A5 [11]) was “metabolite_detected” and the Drug metabolism (Cytochrome P450 2E1) was “metabolite_detected”. The Drug metabolism (Cytochrome P450 1A2) was “metabolite_notdetected”, the Drug metabolism (Cytochrome P450 2B6) was “metabolite_notdetected” and the Drug metabolism (Cytochrome P450 2C8) was “metabolite_notdetected”. For the same compound, the Drug metabolism (Cytochrome P450 2C9) was “metabolite_notdetected”, the Drug metabolism (Cytochrome P450 2C19) was “metabolite_notdetected” and the Drug metabolism (Cytochrome P450 2D6) was “metabolite_notdetected”.
